The target of assay [1] is MIC2. Briefly: SPR binding of PROTACs to immobilized antibody MIC2. Conditions: MIC2, 1:1 kinetic binding model. Here is the method:
The binding affinities of hit antibodies MIC1 and MIC2 to a diverse set of VH032-based PROTACs (FIGS. 8A-8B) was determined by surface plasmon resonance (SPR) in a Biacore T200 instrument. The running buffer consist of PBS, 0.05% Tween-20, 2% DMSO and temperature and flow rate were set to 30° C. and 30 μL/min, respectively. The assay setup is depicted exemplarily in FIG. 7A. CM5 sensor chips were coated with antibody (=ligand; 2500 RU) using standard EDC/NHS chemistry. PROTACs (=analytes) were serially diluted (1 μM-1.9 nM) in running buffer, injected to the instrument in consecutive runs and were captured by the antibody resulting in an increase of the corresponding SPR response. After the association step (300 s), running buffer was injected for 600 s and the PROTAC dissociated from the antibody leading to signal decrease. After each run, residual bound PROTAC was removed from the immobilized antibody by injection of 10 mM glycine/HCl, pH 1.5 for 2×30 s regenerating the antibody for the next association and dissociation cycle. To compensate for matrix effects, the measured SPR response signal was subtracted by the analyte response to an inactivated (EDC/NHS, ethanol amine) reference surface omitting the ligand. Furthermore, a DMSO solvent correction was performed and analyte response was subtracted by the running buffer signal. The corrected response was fitted by a 1:1 kinetic binding model yielding the on- (kon) and off-rate (koff) of the PROTAC, as well as its dissociation constant (KD).

Assay [2] addresses BRD4 (Homo sapiens, UniProt O60885). Briefly: BRD4 Western blot degradation assay in MV411 cells. Type of assay: cell-based. On the set-up: endogenous in cells; host or cells: MV411. Conditions: CD33-positive MV411 cells, 24 h, complexes (1:1). Here is the method: Therefore, CD33-positive MV411 cells were treated with CD33xMIC7+GNE987 or DIGxMIC7+GNE987, as non-binding PAX control, at different concentrations and GNE987 alone as control. MV411 cells were cultured in RPMI-1640 medium supplemented with 10% FCS and penicillin-streptomycin. MV411 cells were seeded in 12-well plates at 1 million cells/ml in 2 ml culture medium and cultured overnight in cell incubator at 37° C. and 5% CO2. Complexation was performed as described in chapter 7.4. GNE987 only was preincubated at identical conditions but in absence of antibody. Subsequently, cells were treated by nanodrop dispersion using a Tecan dispenser with either CD33xMIC7+GNE987 (1:1), DIGxMIC7+GNE987 (1:1) or GNE987 in the respective concentration. All conditions were normalized to 0.0005% (v/V) DMSO and 3.0E-5% Tween20. Cells were incubated for 24 h in cell incubator at 37° C. and 5% CO2. […] Protein concentration was determined via Mettler Toledo UV5Nano photometer. […]
After incubation with corresponding HRP-labeled anti-rabbit/mouse secondary antibodies (GE-Healthcare) at 1:10,000 dilution, blots were detected using ECL solution (Advansta) and x-ray films (GE-Healthcare). Results were analyzed with ImageJ software (version 1.53K, NIH). […]
On the technique in general: In western blotting, separated proteins are transferred to a membrane and probed.

The subject of assay [3] is HEPG2 cells. As to the kind of experiment: CellTiter-Glo cell viability assay (MIC2-based PAX). Conditions: EGFR-negative HEPG2, complexes at 50% loading. Here is the method:
2000 cells per well were seeded into white-opaque 384-well plates followed by overnight incubation in a humid chamber at 37° C. and 5% CO2. Complexation was performed as described in chapter 7.4.
The solutions were added to the cells based on the antibody concentration using Tecan D300e dispenser and all wells were normalized to the same volume using 0.3% TW20 in PBS pH 7.4 and DMSO. The assay was developed after 3 days if not otherwise stated using CellTiter-Glo Luminescent Cell Viability Assay as described in the manufacturer's protocol. In brief, the plates were equilibrated to room temperature for 30 minutes. 100 mL CellTiter-Glo Buffer were added to the CellTiter-Glo Substrate Flask and mixed well. 30 μL of the reagent was transferred to each well. After incubation for 3 minutes at room temperature while shaking at 550 rpm, the plate was incubated for another 10 minutes at room temperature. The luminescence was read on an Envision reader. The evaluation was performed using GraphPad Prism 8 by normalization of cells treated with sample to untreated cells. The data were fitted with 4 point logistic curve to determine the IC50 value.
On the technique in general: ATP-based viability assays read luminescence as a measure of living cells.

The subject of assay [4] is SW620. As to the kind of experiment: CellTiter-Glo cell viability assay (VHH-based PAX). Conditions: SW620, PROTAC alone. Here is the method:
(§1) Several cell viability experiments were performed following the procedure described below: Cells were seeded in different media into white cell culture-treated flat and clear bottom multiwell plates followed by overnight incubation in a humid chamber at 37° C. and 5% CO2. Complexation was performed as described in chapter 7.4.
(§2) The solutions were added to the cells based on the antibody concentration using nanodrop dispension using a Tecan D300e Digital Dispenser and all wells were normalized to the same volume using 0.3% TW20 in PBS pH 7.4 and DMSO to a final solvent concentration of 0.05% DMSO and 0.003% TW20. Incubation was performed at 37° C. at 5% or 10% CO2 dependent on the medium. The assay was developed after 3 days if not otherwise stated using CellTiter-Glo Luminescent Cell Viability Assay as described in the manufacturer's protocol. In brief, the plates were equilibrated to room temperature for 30 minutes. 100 mL CellTiter-Glo Buffer were added to the CellTiter-Glo Substrate Flask and mixed well. 30 μL of the reagent was transferred to each well. After incubation for 3 minutes at room temperature while shaking at 550 rpm, the plate was incubated for another 10 minutes at room temperature. The luminescence was read on an Envision reader from Perkin Elmer. Solvent alone and Bortezomib (1.0E-05 M) served as high control (100% viability) and low control (0% viability), respectively. Raw data were converted into percent cell viability relative to the high and low control, which were set to 100% and 0%, respectively. […] The concentration corresponds to the concentration of PROTACs in the PAX.

Assay [5] deals with A549. Briefly: CellTiter-Glo cell viability assay (VHH-based PAX). As to conditions: A549, PROTAC alone. As for the experimental part:
as §1, §2

Assay [6] has as its system OVCAR3. Briefly: CellTiter-Glo cell viability assay (VHH-based PAX). Conditions: OVCAR3, PROTAC alone. Here is the method:
as §1, §2

These results are taken from US20250312468A1, “ANTI-PROTAC ANTIBODIES AND COMPLEXES” (Merck Patent GmbH, priority 2021, published 2025).

For the molecule `Cc1ncsc1-c1ccc([C@H](C)NC(=O)[C@@H]2C[C@@H](O)CN2C(=O)[C@@H](NC(=O)COCCCOCCNC(=O)C[C@@H]2N=C(c3ccc(Cl)cc3)c3c(sc(C)c3C)-n3c(C)nnc32)C(C)(C)C)cc1` [ARV771], the Kd in assay [1] was more than 1000 nM.

For `Cc1ncsc1-c1ccc(CNC(=O)[C@@H]2C[C@@H](O)CN2C(=O)[C@@H](NC(=O)CCCCCCCCCCNC(=O)c2cc3c(cc2CS(C)(=O)=O)-c2cn(C)c(=O)c4[nH]cc(c24)CN3c2ncc(F)cc2F)C(C)(C)C)cc1` [GNE987], in assay [2], the “BRD4 degradation (Western blot)” value is “BRD4 degradation was found”. Further, in assay [1], the Kd came out at 1.9 nM. Besides, the koff result in assay [1] is “NM/4.10E−05 1/s”. The kon result in assay [1] was “NM/2.20E+04 1/Ms”. The IC50 came to 3.1 nM in assay [3], 0.84 nM in assay [4], 1.4 nM in assay [5] and 0.4 nM in assay [6].

In general, Kd refers to the concentration at which binding is half-saturated. High values mean lower affinity, low ones higher affinity. The term IC50 denotes the point on the concentration scale where inhibition reaches its midpoint. Read a high IC50 as a need for much substance.
